Results as given in US6632643B2, “Use of α-1,4-glucan lyase for preparation of 1,5-D-hydrofructose” (Danisco A/S, priority 1993, dated 2003).
Marks after values point to notes of the source that are not given here.

Tests used:
[1] = system: M. costata lyase; assay: Reversible and irreversible inhibitors of the fungal lyase (M. costata); type: biochemical, Morchella costata; conditions: for decrease of lyase activity (inhibition): 0.1 M inhibitor
Protocol: (§1) The reaction was carried out at 30 ° C. for 30 min and stopped by the addition of 3,5-dinitrosalicylic acid reagent. Optical density at 550 nm was measured after standing at room temperature for 10 min.
Under the same assay conditions and in the presence of 2 mM PCMB, the activity decreased by 60% for the M. costata lyase and 98% for the lyase from the fungal infected red algae. This means that the fungal lyase was much less sensitive to heavy metal inhibition.

[2] = system: α-1,4-glucan lyase; assay: Activity of the lyase towards maltosaccharides (summary); type: biochemical
[3] = system: α-1,4-glucan lyase isolated from M. costata; assay: Oligosaccharide specificity and AF formation by M. costata lyase, Dionex HPLC; type: biochemical, Morchella costata; conditions: 30° C.
Protocol: The specificity of α-1,4-glucan lyase isolated from M. costata for different oligosaccharides was tested. […] The oligosaccharides were dissolved in H2O at a concentration of 8 mg/ml. The enzyme assay contained 150 μl substrate G2/G3/G4/G5/G6/G7, 120 μl 0.1M MBS pH 6.3 and 30 μl purified enzyme. The reaction mixture was incubated for 60 min at 30° C. Afterwards the reaction was stopped by boiling for 3 min and 900 μl absolute ethanol was added for precipitation. After centrifugation at 20.000×g for 5 min at 4° C. the supernatant was transferred to a new eppendorf tube and lyophilized.
The freeze-dried samples were dissolved in 1000 μl H2O and were filtrated through a 0.22 μm Millipore filter before 25 μl of the sample was loaded on the Dionex HPLC.
Analyses were performed on a Dionex 4500i chromatography system consisting of a GPM-2 pump and a PED detector which was used in pulse-amperometric detection mode.
α-1,4-glucan lyase from M.costata hydrolyses starch to the end-product 1,5-anhydrofructose. The end-product was shown by HPLC, method 2. The enzyme assay contained 500 μl amylopectin (20 mg/ml, dissolved in H2O), 400 μl 0.1M MES pH 6.3 and 100 μl purified enzyme. The reaction mixture was incubated at 30° C. and the reaction was stopped by boiling after 30 or 120 min incubation. […]

[4] = system: lyase from M. costata; assay: Relative degrading rates of the lyase from M. costata towards various substrates; type: biochemical, Morchella costata; conditions: for activity (maltotetraose as 100%): purified fungal lyase, section B.1.4.3
[5] = system: M. vulgaris lyase; assay: Reversible inhibitors of the M. vulgaris lyase; type: biochemical, Morchella vulgaris; conditions: 0.1 M inhibitor
Protocol: as §1

[6] = system: lyase from M. vulgaris; assay: Relative degrading rates of the lyase from M. vulgaris towards various substrates; type: biochemical, Morchella vulgaris; conditions: for Activity (%) (maltotetraose = 100%): all substrates 10 mg ml^−1
Protocol: The activity observed for maltotetraose is treated as 100%. The final concentration of all substrates was 10 mg ml^−1.

[7] = system: α-1,4-glucan lyase from the parasite-free red seaweed Gracilariopsis lemaneiformis; assay: Degradation rates of the Californian algal lyase on various substrates; type: biochemical; conditions: for AF released: substrate 10 mg/ml, pH 3.8, 40 min at 45° C.
Protocol: Reaction conditions: The reaction mixture contained 10 mM of HOAc-NaOAc (pH 3.8). The substrate concentration was 10 mg/ml. The final volume was 100 ul after the addition of lyase and water. The reaction time was 40 min at 45° C.

[8] = Electrochemical oxygen consumption in methyl linoleate emulsion; conditions: AF 15, 146 and 680 μM; MMb initiated; pH 5.8; 25.0 °C
Protocol: The activity of AF was investigated in a methyl linoleate emulsion as described by Jorgensen and Skibsted (Z. Lebensm. Unters. Forsch. (1993) 196: 423-429) with minor modifications: To 5.00 ml of a 1.33 mM methyl linoleate emulsion in 5.0 mM aqueous phosphate buffer with pH=5.8 and 0.2 w/w % Tween 20 as emulsifier was added AF in the following concentrations: 0, 15, 146 and 680μM. The oxidation in the system was initiated by addition of 50 μl 0.26 M metmyoglobin (MMb) final concentration 0.26 mM. Immediately after initiating the reaction the sample was injected to a thermostated (25.0±0.1° C.) 70 μl closed cell, effectively excluding diffusion of oxygen into the system. The oxygen consumption was measured by a Clark electrode, which was connected to a PC data collection program. The relative oxygen concentration (%) was registered every 30s.

[9] = Induction period of yogurt salad dressing with 50% oil; conditions: 500 ppm; PF = IP with antioxidant / IP without
Text: For each temperature defined as PF=IP of the oil with added antioxidant/IP of the same oil without added antioxidant

[10] = Reduction of 3,5-dinitrosalicylic acid by AF; type: physicochemical
[11] = Induction period of 50% mayonnaise in bomb calorimeter, 80° C., pure O2; conditions: +500 ppm
Protocol: In the test procedure the anti-oxidants were added to the mayonnaise to provide an anti-oxidant concentration in the order of about 500 ppm. The mayonnaise was then placed in a bomb calorimeter at temperature 80° C. containing pure O2. An induction period to the onset of substantial oxidation of the product is then measured.

[12] = ESR analysis of hydroxyl radical scavenging (Fenton reaction, DMPO spin trap); conditions: H2O2 0.17 mM, Fe2+ 4.8 μM
Protocol: Hydroxyl radicals were generated by a Fenton reaction with H2O2 (0.17 mM) and FeSO4 (4.8 μM). The generated radicals were trapped by 5,5-dimethyl-1-pyrroline N-oxide (DMPO, 9.7 mM). AF was added in concentrations of 1.3 mM and 6.3 mM. A water soluble extract of rosemary (Rosmarinus officinalis L.) was analyzed in a concentration of 0.25 mg/ml (in grams equivalent to 1.26 mM AF). Measurements were carried out at room temperature (20±1° C.) after 120 s and repeated for the same reaction mixture after 300 s with the following spectrometer settings: Center field 3475.60 G; sweep width 55 G; microwave power 20 mW; modulation frequency 100 kHz; modulation amplitude 1.01 G; receiver gain 1.00·10^5; conversion time 81.92 ms time constant 163.84 ms and sweep time 83.89 s.
The generated hydroxyl radicals were trapped by DMPO. The spin adduct gives rise to a characteristic 1:2:2:1 ESR spectrum. The peak height of the spectrum is proportional to the quantitative amount of generated spin adduct. Addition of both DMPO and AF will set up a competition between the spin trap and AF. A reduction of peak height will indicate a good scavenging activity of AF.

[13] = system: lyase from the fungal infected algae; assay: Effect of reaction media on production of AF by the lyase; type: biochemical, fungal infected Gracilariopsis lemaneiformis; conditions: NaCl 0.85% (0.145 M) in the reaction mixture
Text: The production of AF using either pure water or 0.85% NaCl as reaction medium decreased the yield.

[14] = system: α-1,4-glucan lyase from the parasite-free red seaweed Gracilariopsis lemaneiformis; assay: PCMB inhibition of the lyase from Californian alga; type: biochemical; conditions: final concentration 2 mM
Protocol: 7. At a final concentration of 2 mM, p-chloromercuribenzoic acid (PCMB) inhibited the lyase activity by 96%, indicating the —SH group(s) is essential for the enzymatic activity.

[15] = system: lyase from the fungal infected red algae; assay: Inhibition, activation and stabilisation of the lyase from fungal infected algae; type: biochemical, fungal infected Gracilariopsis lemaneiformis
Protocol: […] The reaction was carried out at 30° C. for 30 min and stopped by the addition of 3,5-dinitrosalicylic acid reagent. Optical density at 550 nm was measured after standing at room temperature for 10 min.

[16] = system: lyase from the fungal infected Gracilariopsis lemaneiformis; assay: Reaction rates with glycogen and amylopectin, lyase from fungal infected Gracilariopsis lemaneiformis; type: biochemical

Compound: OC[C@H]1O[C@H](O[C@H]2[C@H](O)[C@@H](O)C(O)O[C@@H]2CO)[C@H](O)[C@@H](O)[C@@H]1O (mixture of isomers) [Maltose, maltose]
- decrease of lyase activity (inhibition) ([1]; Amylopectin 2%): (67.2%)
- decrease of lyase activity (inhibition) ([1]; Glycogen 2%): (49.7%)
- lyase activity towards maltosaccharide [2]: low activity
- 1,5-anhydrofructose formed ([3]; 8 mg/ml substrate, pH 6.3, 60 min): almost no 1,5-anhydrofructose was formed
- activity (maltotetraose as 100%) [4]: 2%
- inhibition of lyase reaction ([5]; Amylopectin (1%)): 80%
- inhibition of lyase reaction ([5]; Glycogen (1%)): 57%
- Activity (%) (maltotetraose = 100%) [6]: 10.1%
- AF released [7]: 657 nmol

Compound: O=C1CO[C@H](CO)[C@@H](O)[C@@H]1O [AF, 1,5-D-anhydrofructose]
- inhibition of enzyme activity by the endproduct ([3]; amylopectin, 30 and 120 min incubation): not inhibited
- oxygen consumption (relative oxygen concentration) [8]: a lag-phase is observed
- PF [9]: 1.06
- reduction of 3,5-dinitrosalicylic acid to 3-amino-5-nitrosalicylic acid [10]: can easily reduce
- IP (hours), Induction Period [11]: 32.0 h
- Peak height [120 s] ([12]; Anhydro fructose 1.3 mM): 2634
- Peak height [300 s] ([12]; Anhydro fructose 1.3 mM): 2545
- Peak height [120 s] ([12]; Anhydro fructose 6.3 mM): 1781
- Peak height [300 s] ([12]; Anhydro fructose 6.3 mM): 1900

Compound: O=C[C@H](O)[C@@H](O)[C@H](O)[C@H](O)CO [Glucose, glucose]
- decrease of lyase activity (inhibition) ([1]; Amylopectin 2%): 7%
- decrease of lyase activity (inhibition) ([1]; Glycogen 1% (10 mg/ml)): 0.000%
- decrease of lyase activity (inhibition) ([1]; Glycogen 1% (10 mg/ml), listed as glucose): not affected
- degradation (AF detectable on TLC plates) ([4]; incubated for 48 h): no AF detectable
- inhibition of lyase reaction ([5]; Amylopectin (1%)): 28%
- inhibition of lyase reaction ([5]; Glycogen (1%)): 5%
- degradation (AF detectable on TLC plates) ([6]; incubated for 48 h): no AF detectable
- degradation by the lyase [7]: not able to degrade

Compound: OC[C@H]1O[C@H](O[C@H]2[C@H](O)[C@@H](O)[C@@H](O[C@H]3[C@H](O)[C@@H](O)[C@@H](O[C@H]4[C@H](O)[C@@H](O)[C@@H](O[C@H]5[C@H](O)[C@@H](O)C(O)O[C@@H]5CO)O[C@@H]4CO)O[C@@H]3CO)O[C@@H]2CO)[C@H](O)[C@@H](O)[C@@H]1O (stereo partly drawn) [Maltopentaose, maltopentaose]
- lyase activity towards maltosaccharide [2]: highest activity
- relative degrading rate (maltotetraose = 100%) ([4]; substrate 2 mg/ml): 107.1%
- relative degrading rate (maltotetraose = 100%) ([4]; substrate 4 mg/ml): 100.1%
- relative degrading rate (maltotetraose = 100%) ([4]; substrate 10 mg/ml): 99.7%
- Activity (%) (maltotetraose = 100%) [6]: 79.3%
- AF released [7]: 674 nmol

Compound: OC[C@H]1O[C@H](O[C@H]2[C@H](O)[C@@H](O)[C@@H](O[C@H]3[C@H](O)[C@@H](O)[C@@H](O[C@H]4[C@H](O)[C@@H](O)C(O)O[C@@H]4CO)O[C@@H]3CO)O[C@@H]2CO)[C@H](O)[C@@H](O)[C@@H]1O (stereo partly drawn) [Maltotetraose, maltotetraose]
- lyase activity towards maltosaccharide [2]: highest activity
- activity (maltotetraose as 100%) [4]: 100%
- relative degrading rate (maltotetraose = 100%) ([4]; substrate 2 mg/ml): 100%
- relative degrading rate (maltotetraose = 100%) ([4]; substrate 4 mg/ml): 100%
- relative degrading rate (maltotetraose = 100%) ([4]; substrate 10 mg/ml): 100%
- Activity (%) (maltotetraose = 100%) [6]: 100.0%
- AF released [7]: 670 nmol

Compound: OCC1OC(OC2C(CO)OC(OC3C(CO)OC(O)C(O)C3O)C(O)C2O)C(O)C(O)C1O (stereo not drawn) [Maltotriose, maltotriose]
- lyase activity towards maltosaccharide [2]: lower activity
- activity (maltotetraose as 100%) [4]: 56%
- relative degrading rate (maltotetraose = 100%) ([4]; substrate 2 mg/ml): 40.6%
- relative degrading rate (maltotetraose = 100%) ([4]; substrate 4 mg/ml): 58.6%
- relative degrading rate (maltotetraose = 100%) ([4]; substrate 10 mg/ml): 56.0%
- Activity (%) (maltotetraose = 100%) [6]: 49.8%
- AF released [7]: 654 nmol

Compound: [Cl-].[Na+] [NaCl]
- increase of AF yield [13]: up to 1 -fold

Compound: O=C(O)c1cc[c]([Hg][Cl])cc1 [PCMB, p-chloromercuribenzoic acid]
- activity decreased by ([1]; 2 mM PCMB): 60%
- inhibition of lyase activity [14]: 96%
- activity decreased by ([15]; 2 mM PCMB): 98%

Compound: OC[C@H]1NC[C@H](O)[C@@H](O)[C@@H]1O [deoxyjirimycin]
- activity decreased to (remaining activity) ([1]; 25 μM, amylopectin 2%): 10.4%
- lyase activity ([1]; 100 μM, amylopectin 2%): completely lost
- activity decreased to (remaining activity) ([15]; 25 μM, amylopectin 2%): 10.4%
- lyase activity ([15]; 100 μM, amylopectin 2%): completely lost

Compound: Amylopectin
- relative reaction rates ([16]; 25 C.): 0.818^a
- relative reaction rates ([16]; 30 C.): 1.133^a
- relative reaction rates ([16]; 45 C.): 1.17^a
- stabilizing effect on the lyase ([15]; soluble and immobilized enzyme system): stabilizing effect
- degradation by the fungal lyase [4]: also degraded
- relative degrading rate (maltotetraose = 100%) ([4]; substrate 10 mg/ml): 106.5%
- Activity (%) (maltotetraose = 100%) [6]: 139.9%
- substrate concentration at which half of the maximal velocity rate was reached [7]: 3.76 mg/mL
- AF released [7]: 732 nmol
